One data set relates to Wistar rat. Nature of the data set: Measurement of blood flow and blood pressure in rats (femoral flow), Wistar rat. In kind it is in vivo. As to the method: (§1) Wistar rats (Hsd Cpb:Wu) of a weight of 250-350 g or ZDF rats (ZDF/Crl-Lepr fa/fa) of a weight of 330-520 g were anesthetized using 2.5% isoflurane in an oxygen/laughing gas mixture (40:60). To determine the blood flow in the carotid artery and the femoral artery, the anesthetized rat was brought into a supine position, and the left carotid artery and the right femoral artery are then carefully exposed. Blood flow was measured by placing flow probes (Transonic Flowprobe) at the vessels. By introducing a PE50 artery catheter into the left femoral artery, blood pressure and heart rate were determined (Transducer Ref. 5203660: from Braun CH). The substances were administered as a bole injection or a continuous infusion via a venous catheter in the left femoral vein.
(§2) Following the preparation of the animals, there was a 5 min baseline interval. Infusion of the AR alpha2C receptor antagonist was then started. In the steady state (32 min after the start of the experiment), the femoral flow was determined in relation (% difference) to the initial flow.
(§3) At the same time, no changes in blood pressure and heart rate were measured. Placebo: 10% ethanol/40% PEG400/50% NaCl.

Data set [1] deals with diabetic ZDF fa/fa animals. Nature of the data set: Measurement of blood flow and blood pressure in rats (femoral flow), ZDF rat. In kind it is in vivo. Conditions: for Change in the femoral flow in %: ZDF rat (n = 3), steady state 32 min, mean. As to the method:
as §1, §2, §3

The subject of data set [2] is conscious female Wistar rats. Nature of the data set: Radiotelemetric measurement of blood pressure and heart rate of conscious rats. The data set is classed as in vivo, rat. An excerpt: A commercially available telemetry system from Data Sciences International DSI, USA, was employed for the measurements on conscious rats described below. The system consists of 3 main components: (1) implantable transmitters (Physiotel® telemetry transmitter), (2) receivers (Physiotel® receiver), which are linked via a multiplexer (DSI Data Exchange Matrix) to a (3) data acquisition computer. The telemetry system makes it possible to continuously record blood pressure, heart rate and body motion of conscious animals in their usual habitat.
The studies were conducted on adult female Wistar rats with a body weight of >200 g. After transmitter implantation, the experimental animals were housed singly in type III Makrolon® cages. They had free access to standard feed and water. The day/night rhythm in the test laboratory was set by changing the illumination of the room.
The telemetry transmitters used (PA-C40, DSI) were surgically implanted under aseptic conditions in the experimental animals at least 14 days before the first experimental use.
For the implantation, the fasted animals were anaesthetized with isoflurane (IsoFlo®, Abbott, initiation 5%, maintenance 2%) and shaved and disinfected over a large area of their abdomens. […]
Each of the instrumented rats living in the system was assigned a separate receiving antenna (RPC-1 Receiver, DSI). […] The signals emitted were detected online by a data acquisition system (Dataquest™ A.R.T. for Windows, DSI) and processed accordingly.
In the standard procedure, the following were measured for 10-second periods in each case: (1) systolic blood pressure (SBP), (2) diastolic blood pressure (DBP), (3) mean arterial pressure (MAP) and (4) heart rate (HR) and (5) activity (ACT). These parameters were measured over 24 hours after administration.
The acquisition of measurements was repeated under computer control at 5-minute intervals. The source data obtained as absolute values were corrected in the diagram with the currently measured barometric pressure (Ambient Pressure Reference Monitor, APR-1, DSI). […]

For data set [3], the target named is recombinant human α2C receptor (Homo sapiens (Human), UniProt P18825). The data set can be described thus: Antagonism against the adrenoreceptor α2C (luminescence, noradrenaline-stimulated CHO cells). The data set is classed as cell-based. Conditions: noradrenaline 20 nM; CHO cell line with Gαqi3 and mtOb. As to the method: Antagonism against the adrenoreceptor α1A was tested using a recombinant human α1A receptor CHO cell line which additionally also recombinantly expresses mtAeq (mitochondrial aequorin). Antagonism against the adrenoreceptor α2A was tested using a recombinant human α2A-Gα16 receptor fusion protein CHO cell line (PerkinElmer Life Sciences) which additionally also recombinantly expresses mtAeq. Antagonism against the adrenoreceptor α2B was tested using a recombinant human α2B receptor CHO cell line (PerkinElmer Life Sciences) which additionally also recombinantly expresses mtAeq. Antagonism against the adrenoreceptor α2C was tested using a recombinant human α2C receptor CHO cell line which additionally also recombinantly expresses a chimaric G protein (Gαqi3) and mtOb (mitochondrial obelin).
Chain of recombinant human α2C receptor (P18825 whole entry, the tested form may be a part): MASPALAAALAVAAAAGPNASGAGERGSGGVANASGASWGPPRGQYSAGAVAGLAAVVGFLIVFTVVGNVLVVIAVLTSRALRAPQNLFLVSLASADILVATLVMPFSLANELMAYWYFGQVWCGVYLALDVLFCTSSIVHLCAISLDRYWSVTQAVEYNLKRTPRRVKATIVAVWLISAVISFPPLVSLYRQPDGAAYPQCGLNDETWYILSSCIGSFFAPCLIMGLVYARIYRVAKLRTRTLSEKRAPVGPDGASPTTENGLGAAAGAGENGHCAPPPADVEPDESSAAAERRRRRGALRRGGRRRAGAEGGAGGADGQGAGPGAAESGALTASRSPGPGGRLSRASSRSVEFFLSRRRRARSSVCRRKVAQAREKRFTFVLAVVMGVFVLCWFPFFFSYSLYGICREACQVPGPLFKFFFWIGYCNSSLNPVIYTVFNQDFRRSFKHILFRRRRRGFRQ
The cells were cultivated at 37° C. and 5% CO2 in Dulbecco's modified Eagle's Medium/NUT mix F12 with L-glutamine which additionally contains 10% (v/v) inactivated foetal calf serum, 1 mM sodium pyruvate, 0.9 mM sodium bicarbonate, 50 U/ml penicillin, 50 μg/ml streptomycin, 2.5 μg/ml amphotericin B and 1 mg/ml Geneticin. The cells were passaged with enzyme-free Hank's-based cell dissociation buffer. All cell culture reagents used were from Invitrogen (Carlsbad, USA).
Luminescence measurements were carried out on white 384-well microtitre plates. 2000 cells/well were plated in a volume of 25 μl and cultivated for one day at 30° C. and 5% CO2 in cell culture medium with coelenterazine (α2A and α2B: 5 μg/ml; α1a/c and α2C: 2.5 μg/ml). Serial dilutions of the test substances (10 μl) were added to the cells. After 5 minutes, noradrenaline was added to the cells (35 μl; final concentrations: 20 nM (α1a/c and α2C) or 200 nM (α2A and α2B)), and the emitted light was measured for 50 seconds using a CCD (charge-coupled device) camera (Hamamatsu Corporation, Shizuoka, Japan) in a light-tight box. The test substances were tested up to a maximum concentration of 10 μM. The IC50 values were calculated from the appropriate dose-response curves.

Data set [4] deals with diabetic (ZDFfa/fa) and healthy rats (Wistar). Nature of the data set: Assay of perfusion-enhancing substances (microcirculation), laser doppler at the paw. The data set is classed as in vivo, rat. From the text:
In diabetic (ZDFfa/fa) and healthy rats (Wistar), a laser doppler probe was fastened under anaesthesia conditions (isoflurane anaesthesia) at the sole of the paw for measuring cutaneous microcirculation. The test animals were once treated orally with the test substances. During the experiment, microperfusion and temperature of the lower extremities were documented continuously. Here, a temperature-sensitive laser doppler probe (Periflux, O2C) was fastened with adhesive to the paws of the animals, allowing the measurement of microperfusion and skin temperature. The microcirculation measurement values were measured on both paws 30 min after oral administration of the test substance. […] Also stated is the MED for the significant increase of skin temperature (ttest).
Microcirculation data for adrenoreceptor α2C receptor antagonist of the compound of Example 8 and for the comparative substance ORM12741, an AR α2c receptor antagonist from Orion, are shown in Table 3: […]

Where [5] appears, read: during infusion, up to 1 μg/kg/min.

As to `O=C(c1cnc(N2CC3(COC3)C2)nc1)N1CCC(N2CCc3ccccc3C2)CC1` [Example 8, [4-(3,4-Dihydroisoquinolin-2(1H)-yl)piperidin-1-yl][2-(2-oxa-6-azaspiro[3.3]hept-6-yl)pyrimidin-5-yl]methanone], the “Change in the femoral flow in %” value in the data set on Wistar rat (Wistar rat (n = 7), 1 μg/kg/min infusion, steady state 32 min, mean) is reported as −6.7 (n = 7) %; in data set [1] (0.1 μg/kg/min infusion) it was 12.3%; in data set [1] (0.3 μg/kg/min infusion) it was 65.0%; in data set [1] (1 μg/kg/min infusion), 131.3%. The “femoral flow (in words)” value with Wistar rat (Wistar rat, up to a dose of 1 μg/kg/min) is given as “no increase in femoral flow”; in data set [1] (diabetic ZDF fa/fa animals, doses of 0.1, 0.3 and 1 μg/kg), “dose-dependent increase in femoral flow”. Moreover, in the data set with Wistar rat (setting [5]), the “blood pressure (in words)” value is reported as “no changes”. In the data set with Wistar rat (setting [5]), the “heart rate (in words)” value is “no changes”. Also, the heart rate entry in data set [2] (oral 3 and 10 mg/kg) is reported as “slight transient increase in the heart rate”. In addition, the “haemodynamic effects (blood pressure, heart rate)” value in data set [2] (up to an oral dose of 1 mg/kg) was “no haemodynamic effects”. The half-maximal inhibitory concentration (IC50) in data set [3] is 23 nM. The “factor by which microcirculation is improved at the MED compared to placebo” value in data set [4] (single oral dose at MED, 30 min after administration) amounted to 1.8 x. The MED microcirculation in data set [4] (single oral dose, measured 30 min after administration, significant vs placebo) is recorded as 0.03 mg/kg. For the same molecule, the MED skin temperature in data set [4] (single oral dose, significant increase of skin temperature (ttest)) was 0.01 mg/kg.

The record behind these values is US10323020B2, “Substituted piperidinyl tetrahydroquinolines” (Bayer Pharma Aktiengesellschaft, priority 2013, dated 2019).
